# Results as given in patent US20230088704A1, “A PHARMACEUTICAL COMBINATION FOR THE TREATMENT OF A CANCER” (ABILITY PHARMACEUTICALS S.L., priority 2020, published 2023).
# Columns and labels:
# [1] = test system: human immortalized THP-1 and human primary macrophage cells; experiment: M1/M2 polarization of immortalized and primary macrophages, RT-qPCR; type: cell-based
# Procedure: Methods: THP-1 monocytes growing in suspension were differentiated to macrophages by incubation with PMA for 24 hours, inducing their attachment to the plates. Monocytes were differentiated to macrophages incubating with M-CSF1 at 20 ng/mL for 7 days. In parallel, whole blood was collected from healthy donors, and circulating monocytes were purified using immunomagnetic separation. Monocytes were selected using anti-CD14 antibodies bound to magnetic beads, which were retained in the magnetic column and further eluted for culturing in vitro. After obtaining activated macrophages (immortalized and primary), these were polarized to M1 by incubation with LPS+IFNγ for 6 hours in the presence of ABTL0812 at 100 μM. In parallel, differentiated macrophages were polarized to M2 by incubation with IL-4 and IL-13 for 24 hours in the presence of ABTL0812 (100 μM). Afterwards, polarized macrophages were lysed, total RNA extracted, retrotranscribed to cDNA and mRNA levels of IL1β, TNFα (M1 markers) and IL-10 (M2 marker) were evaluated by RT-qPCR using specific probes.
# [2] = test system: PD1; experiment: PD1 expression in primary T cells by flow cytometry; type: cell-based, human; conditions: 6 hours
# Procedure: Methods: Human PBMCs were purified from peripheral blood of healthy donors using Ficoll and cultured in vitro. Human T cells were activated by incubation with IL-2 and CD3 and CD28 antibodies for 10 days and then treated with ABTL0812 for 6 hours. Finally, levels of PD1 expressed in the membrane of T cells was analyzed by flow cytometry using specific antibodies. Results are indicated as % of positive cells and show the average of three independent experiments (t-test **p<0.01 and ***p<0.001).
# [3] = test system: Ishikawa cells; experiment: Human endometrial cancer xenograft, ABTL0812 with bevacizumab; type: in vivo; conditions: ABTL0812 oral 120 mg/kg/day; Bevacizumab ip 100 μg/dose every four days
# Procedure: Methods: Mice were injected with 4×10^6 Ishikawa cells in one flank to induce tumor formation. […] Bevacizumab was administered ip at 100 μg/dose, every four days up to four administration. Tumor volume and body weight were monitored 3 times a week.
# [4] = test system: U87MG cells; experiment: Human glioblastoma orthotopic xenograft, ABTL0812 with temozolomide; type: in vivo, nude mice; conditions: ABTL0812 oral 240 mg/kg 5 days/week; temozolomide oral 32 mg/Kg first 5 days
# Procedure: Methods: Mice were intra-cerebrally injected with luciferase transfected U87MG cells. Animals were randomized 5 days after cell inoculation and treatments started. ABTL0812 was administered orally at 240 mg/kg 5 days/week; and temozolomide orally at 32 mg/Kg the first 5 days. Tumors were measured by quantification of bioluminescence intensity (BLI) of the region of interest.
# [5] = test system: endometrial carcinogenesis induced by the deletion of PTEN; experiment: Endometrial carcinogenesis induced by PTEN deletion; type: in vivo, mice; conditions: ABTL0812 120 mg/kg daily during 3 weeks
# Procedure: Methods: Mice were injected with tamoxifen to induce PTEN deletion. Three weeks after tamoxifen administration, when animal has developed hyperplasias, animals were administered with ABTL0812 at 120 mg/kg daily or with vehicle during 3 weeks. At that time, vehicle treated animals (6 weeks after tamoxifen injection) develop neoplasias, which are quantified by immunohistochemistry of extracted uterus. After ABTL0812 treatment, animals were sacrificed, uterus extracted in paraffin-embedded for further immunohistochemical analysis by hematoxylin-eosin staining for carcinogenesis evaluation or with anti-CD3 to evaluate T lymphocyte infiltration within tumoral lesions, indicative of tumor microenvironment immunomodulation.
# [6] = test system: Human pancreatic cancer cells; experiment: Secretome of pancreatic cancer cells, chemokine antibody array; type: cell-based; conditions: ABTL0812 100 μM; 24 hours
# Procedure: Methods: Human pancreatic cancer cells were treated with ABTL0812 at 100 μM for 24 hours and culture media was collected for its incubation using the RayBio C-Series Human Chemokine Antibody Array C1 (RayBiotec). Culture media was incubated with a membrane containing antibodies against 38 different chemokines. Afterwards, the membrane was incubated with secondary antibodies and further developed using HRP substrate.
# [7] = test system: U87MG cells; experiment: Human glioblastoma orthotopic xenograft, ABTL0812 with radiotherapy; type: in vivo, nude mice
# Procedure: Methods: Mice were intra-cerebrally injected with luciferase transfected U87MG cells. Animals were randomized 5 days after cell inoculation and treatments started. ABTL0812 was administered orally at 240 mg/kg 5 days/week and radiotherapy as single dose of 4 Gy administered at day 10.
# Tumors were measured by quantification of bioluminescence intensity (BLI) of the region of interest.
# [8] = test system: PDL1; experiment: PDL1 expression in cancer cells by flow cytometry (Example 6.2); type: cell-based, human; conditions: ABTL0812 100 μM, 48 hours
# Procedure: Methods: Human cancer cell lines were incubated with 100 μM of ABTL0812 during 48 hours and collected for staining with anti-PDL1 antibody labeled with a fluorophore. After staining of cells with anti-PDL1 antibody, cells were run on Flow Cytometry (Facs Canto) to analyzed PDL1 levels in cancer cells. Additionally, we incubated Panc-1 cells with ABTL0812 (50 μM), IFNγ (2.5 ng/ml), a master regulator of PDL1 expression or a combination with both. Then, cells were collected, stained with anti-PDL1 antibody and analyzed by Flow Cytometry for the expression of PDL1.
# [9] = test system: Human pancreatic cancer cells; experiment: Immunogenic cell death (ICD) hallmarks; type: cell-based; conditions: ABTL0812 0 to 150 μM; 24 hours
# Procedure: Methods: Human pancreatic cancer cells were treated with increasing concentrations of ABTL0812 (ranging from 0 to 150 μM) for 24 hours, and ICD hallmarks extracellular Hmgb1 and ATP, surface Calreticulin, and caspases 3 and 8 activation, were evaluated by ELISA (Hmgb1 and ATP), flow cytometry (Calreticulin) and immunoblotting (Caspases 3 and 8). For extracellular Hmgb1 and ATP, culture media from ABTL0812 treated cells were collected and incubated with specific antibodies for further detection using colorimetric assay. For surface Calreticulin, cancer cells were collected and incubated with specific antibody for further detection using flow cytometry. For Caspase 3 and 8 activation, cancer cells were collected, protein lysate obtained, incubated with specific antibodies for further detection using immunoblotting and finally quantified using densitometry.
# [10] = test system: MiaPaca2 cells; experiment: Cytotoxicity against MiaPaca2 cells; type: cell-based, human; conditions: previous results
# [11] = macrophages polarized to M1 (LPS+IFNγ 6 hours), ABTL0812 100 μM
smiles,measurement,setting,value
"CCCCC/C=C\C/C=C\CCCCCCC(O)C(=O)O (stereo not drawn) [ABTL0812, COOH—CHOH—(CH2)6—(CH═CH—CH2)2—(CH2)3—CH3]",expression of IL-1β,"[1]; differentiated macrophages without polarizing, ABTL0812 alone",significantly induces the expression of IL-1β
same,IL-1β mRNA levels,[1]; [11],significantly potentiates
same,TNFα mRNA levels,[1]; [11],significantly potentiates
same,IL-10 mRNA levels,"[1]; macrophages polarized to M2 (IL-4 and IL-13, 24 hours), ABTL0812 100 μM",significantly suppresses
same,PD1 expression,"[2]; activated (IL-2, CD3 and CD28 antibodies) human primary CD4 and CD8 T lymphocytes",induces the inhibition of PD1 expression
same,PD1 expression,[2]; non-activated human primary CD4 and CD8 T lymphocytes,induces the inhibition of PD1 expression
same,tumor volume,[3],significantly reduced tumor volume
same,disease-free survival,[4],significantly increased the disease-free survival
same,development of endometrial intraepithelial neoplasias (EIN),[5],significant reduction in the development of endometrial intraepithelial neoplasias
same,CD3 T lymphocyte infiltration,[5]; anti-CD3 immunohistochemistry,induce the infiltration of CD3 T lymphocytes within tumoral lesions
same,animals with hyperplasias,[5]; hematoxylin-eosin staining,80%
same,secreted CCL5,[6],decrease
same,secreted CXCL6,[6],decrease
same,secreted CXCL16,[6],decrease
same,secreted angiogenin,[6],decrease
same,"disease-free survival, single agent",[7]; ABTL0812 oral 240 mg/kg 5 days/week,significantly increased the disease-free survival
same,"disease-free survival, combination with radiotherapy",[7]; ABTL0812 oral 240 mg/kg 5 days/week + radiotherapy single dose 4 Gy at day 10,significantly more efficacious than the single treatments
same,"PDL1 expression, increase from basal levels",[8]; Capan-2 cells,86%
same,"PDL1 expression, increase from basal levels",[8]; MiaPaca2 cells,34%
same,Caspase 3 and 8 activation,[9],dose dependent increase
same,extracellular ATP,[9],dose dependent increase
same,extracellular Hmgb1,[9],dose dependent increase
same,surface Calreticulin,[9],dose dependent increase
same,IC50,[10],50 µM
